PMC6151395, “COX Inhibition Profile and Molecular Docking Studies of Some 2-(Trimethoxyphenyl)-Thiazoles” (Molecules : A Journal of Synthetic Chemistry and Natural …, 2017)
Values joined by “and” are separate entries in the source; they are usually repeats but may differ in a detail not shown here. Equal entries are not always repeated.

Assays:
human recombinant COX-2 = target: T1, human recombinant COX-2 (Homo sapiens, UniProt P35354); assay: biochemical; type: biochemical; details: for Selectivity index SI = IC50 COX-1/IC50 COX-2: ratio of ovine COX-1 to human recombinant COX-2 IC50
T1 construct: purchased Cayman Chemical 560131
T1 sequence (P35354 18-604): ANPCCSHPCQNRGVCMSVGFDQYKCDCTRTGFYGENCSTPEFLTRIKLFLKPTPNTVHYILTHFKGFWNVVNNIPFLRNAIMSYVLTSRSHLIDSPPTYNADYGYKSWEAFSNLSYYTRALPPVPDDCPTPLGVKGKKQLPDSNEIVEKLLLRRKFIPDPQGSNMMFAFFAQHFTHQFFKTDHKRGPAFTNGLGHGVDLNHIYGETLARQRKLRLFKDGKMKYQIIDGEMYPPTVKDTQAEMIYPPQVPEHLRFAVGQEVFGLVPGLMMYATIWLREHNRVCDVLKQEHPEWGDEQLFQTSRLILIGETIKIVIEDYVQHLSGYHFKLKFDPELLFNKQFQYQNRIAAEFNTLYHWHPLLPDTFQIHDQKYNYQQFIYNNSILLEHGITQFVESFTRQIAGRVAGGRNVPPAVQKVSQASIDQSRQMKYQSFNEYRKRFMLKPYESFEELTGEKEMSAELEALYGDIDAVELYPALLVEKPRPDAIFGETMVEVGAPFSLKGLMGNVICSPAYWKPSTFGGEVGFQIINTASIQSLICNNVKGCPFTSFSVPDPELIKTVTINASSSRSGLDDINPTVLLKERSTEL
Experimental: (§1) The COX-1/2 inhibitory activities of the tested compounds were evaluated using the enzyme immunoassay (EIA) method against ovine COX-1 and human recombinant COX-2. The selectivity index was calculated as the ratio IC50 COX-1/IC50 COX-2.
(§2) The kit utilizes an enzyme immunoassay (EIA) in order to quantify the prostanoid product resulted from COX catalyzed reaction. The inhibitory potential of our molecules was tested against the ovine COX-1 and human recombinant COX-2 enzymes. The COX inhibition reaction was performed by a 10 min incubation at 37 °C in the presence of reaction buffer, heme, COX-1 or COX-2 enzymes, and the tested inhibitor. The reaction was initiated by adding arachidonic acid and incubating at 37 °C for 2 min. Enzymatic catalysis was stopped by adding HCl. Stannous chloride was subsequently added to perform the reduction of COX-derived prostaglandin H2 (PGH2) produced in the reaction of COX leading to prostaglandin F2α (PGF2α). PGF2α was then quantified using the EIA kit. Prostanoid containing solutions obtained from the COX reaction were then diluted and transferred to plates that were pre-coated with monoclonal anti-rabbit IgG antibodies produced in mouse. They were incubated overnight in the presence of PG-acetylcholinesterase (AchE) conjugate and specific PG antiserum. The reaction mixture was then removed from the wells, the plates were washed to remove all unbound reagents and Ellman’s reagent (which contains the AchE substrate) was then added for plate development. […] The intensity of the color is inversely proportional to the amount of PG found in the sample. The PG quantity was determined using a PG standard curve generated on the same plate. All determinations were performed according to the manufacturer’s instructions and similar with other literature reports. The IC50 values were calculated using a sigmoidal concentration-inhibition response curve (duplicate determinations). Every compound was assayed in the COX reaction on a range of concentrations from 0.03 μM to 300 µM in two distinct determinations. Each COX reaction sample was then EIA assayed at two dilutions and each dilution was tested in duplicate. […] Using IC50 values, the selectivity index (SI) was calculated as the ratio IC50COX-1/IC50COX-2.

ovine COX-1 = target: T2, ovine COX-1 (Ovis aries, UniProt P05979); assay: biochemical; type: biochemical; details: EIA, sigmoidal concentration-inhibition curves, concentrations 0.03 μM to 300 µM
T2 construct: purchased Cayman Chemical 560131
T2 sequence (P05979 25-600): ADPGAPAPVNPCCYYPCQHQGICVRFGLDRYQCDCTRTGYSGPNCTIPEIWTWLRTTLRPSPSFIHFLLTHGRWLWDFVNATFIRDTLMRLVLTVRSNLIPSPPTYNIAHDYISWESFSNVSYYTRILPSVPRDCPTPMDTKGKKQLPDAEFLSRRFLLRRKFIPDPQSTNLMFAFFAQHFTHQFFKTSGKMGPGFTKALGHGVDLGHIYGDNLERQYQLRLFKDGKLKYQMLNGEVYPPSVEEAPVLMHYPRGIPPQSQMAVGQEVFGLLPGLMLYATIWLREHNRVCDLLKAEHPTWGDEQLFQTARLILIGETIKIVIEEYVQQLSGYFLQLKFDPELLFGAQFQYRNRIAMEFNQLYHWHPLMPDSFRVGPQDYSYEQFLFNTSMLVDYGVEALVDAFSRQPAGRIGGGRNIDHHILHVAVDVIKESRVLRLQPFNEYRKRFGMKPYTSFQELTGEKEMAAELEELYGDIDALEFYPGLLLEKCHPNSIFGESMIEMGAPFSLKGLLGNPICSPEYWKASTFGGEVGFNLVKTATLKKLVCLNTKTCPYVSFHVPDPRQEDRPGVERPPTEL
Experimental: as §1, §2

[1] = parameters: method as in earlier work; details: induced acute inflammation experimental model; cited from earlier work
[2] = human recombinant COX-2, EIA, sigmoidal concentration-inhibition curves, concentrations 0.03 μM to 300 µM

| Structure (SMILES) | IC50 (human recombinant COX-2; [2]) [µM] | IC50 COX-2 (human recombinant COX-2; [2]) | IC50 (ovine COX-1) [µM] | Selectivity index SI = IC50 COX-1/IC50 COX-2 (human recombinant COX-2) | IC50 COX-1 (ovine COX-1) | in vivo anti-inflammatory effect [1] |
| --- | --- | --- | --- | --- | --- | --- |
| COc1cc(-c2nc(-c3ccccc3)c(C)s2)cc(OC)c1OC [A1] | > 300 | practically inactive | 140 | – | – | – |
| COc1cc(-c2nc(-c3ccccc3)cs2)cc(OC)c1OC [A2] | 23.3 | – | 34.5 | 1.48 | potent | lacked the in vivo effect |
| COc1cc(-c2nc(-c3ccc([N+](=O)[O-])cc3)cs2)cc(OC)c1OC [A3] | 25.5 | – | 236 | 9.242 and 9.24 | – | efficient |
| COc1ccc(-c2csc(-c3cc(OC)c(OC)c(OC)c3)n2)cc1 [A4] | 75 | – | 50.4 | 0.67 | potent | – |
| COc1cc(-c2nc(-c3ccc(C#N)cc3)cs2)cc(OC)c1OC [A5] | 148 | – | 73.3 | 0.49 | – | – |
| COc1cc(-c2nc(-c3cccc4ccccc34)cs2)cc(OC)c1OC [A6] | 28.9 | – | 26.9 | 0.93 | – | – |
| COc1cc(-c2nc(-c3ccc(C(N)=O)c(O)c3)cs2)cc(OC)c1OC [A7] | 106 | – | 54.7 | 0.51 | potent | – |
| COc1cc(-c2nc(-c3ccc(Cl)cc3)cs2)cc(OC)c1OC [A8] | 25.6 | – | 31.5 | 1.22 | potent | efficient |
| COc1cc(-c2nc(-c3sc(-c4ccccc4)nc3C)cs2)cc(OC)c1OC [A9] | 70.9 | – | 83.2 | 1.17 | – | – |
| COc1cc(-c2nc(CCl)cs2)cc(OC)c1OC [A10] | 107 | – | – | 5.69 | – | – |
| COc1cc(-c2nc(C)c(C(C)=O)s2)cc(OC)c1OC [A11] | 216 | – | 76 | 0.35 | – | – |
| CCOC(=O)c1sc(-c2cc(OC)c(OC)c(OC)c2)nc1C [A12] | 273 | – | – | 1.5 | – | – |
| CCOC(=O)Cc1csc(-c2cc(OC)c(OC)c(OC)c2)n1 [A13] | 229 | – | 109 | 0.47 | – | – |
